From patent US10323017B2, “Antioxidants and methods to maximize performance” (University of Ottawa, priority 2015, dated 2019)

Tests used:
[1] = Hexadecane autoxidation at 160° C. (hydroperoxide formation), stirred flow reactor, initiated by tetralin hydroperoxide; details: for effect of added palmitic acid on inhibitory activity: 1 mM palmitic acid; for effect of added base 2,4,6-tri-tert-butylpyridine on inhibition of autoxidation: TTBP 1 mM vs. no base
Experimental: To evaluate the effect of an added sacrificial base on the high-temperature radical-trapping activity of antioxidants, autoxidations of n-hexadecane were carried out at 160° C. in a stirred flow reactor in the absence of or presence of a base, where a constant positive pressure of O2 was used to stir the medium and prevent mass transfer from becoming rate limiting (Igarashi, J., et al., J. Am. Chem. Soc. 1992, 114, 7727; Jensen, R.; et al., J. Am. Chem. Soc. 1979, 101, 7574). Tetralin hydroperoxide (10 mM) was used as a radical initiator since inhibited autoxidations in the absence of an initiator were very slow. At regular intervals, aliquots of the reaction mixture were removed, cooled and the concentration of hydroperoxide products determined by reaction with a developed fluorogenic phosphine (Hanthorn, J. J., et al., Chem. Commun. 2012, 48, 10141). Autoxidations were followed for the first 2% of the reaction, based on hydroperoxide formation, since beyond ca. 3% conversion, the hydroperoxide yield begins to decrease and highly complex mixtures of ketones, alcohols, carboxylic acids and esters arise.
n-Hexadecane (100 mL) was thoroughly degassed with argon and heated to 160° C. while argon was continuously bubbled through the liquid. […] For those experiment where acid or base was present, as noted in the figure captions, they were also added at this point. Aliquots (0.5 mL) were removed every 5 minutes, and allowed to cool to room temperature for analysis. Four duplicates (30 μL) of each sample were loaded into separate wells of a 96-well microplate and the automated reagent dispenser of the microplate reader was used to dilute each sample with tert-amyl alcohol (200 μL) and a solution of fluorogenic phosphine dye solution (20 μL of a 250 μM stock solution in acetonitrile) immediately before reading. The plate was stirred for 8 seconds, allowed to rest for 2 more seconds, and the fluorescence of each well was measured every second for 60 seconds (absorption at 340; emission at 425). The concentration of hydroperoxide was determined from the rate of phosphine oxidation using the rate constant for the reaction of the dye with secondary hydroperoxides in tert-amyl alcohol (k=1.2 M^−1s^−1) assuming pseudo-first-order kinetics. See sample data from an uninhibited autoxidation and one inhibited with diarylamine 4 alongside analogous experiments in the absence of the initiator tetralin hydroperoxide, or O2 (FIGS. 2C-E). Further results are presented in FIGS. 7 to 17 for hexadecane autoxidations and FIGS. 18 and 19 for tetralin autooxidations in the presence and absence of antioxidants, and at varying pH. FIGS. 14-17 correspond to hexadecane autoxidations carried out for diarylamine 4 in the presence of four different bases. FIGS. 7-13 correspond to hexadecane autoxidations carried out for compounds 1-7 and 20 in the presence and absence of a base, specifically, 2,4,6-tri-tert-butylpyridine. FIG. 5A corresponds to hexadecane autoxidations carried out for diarylamine 4 and 7 in the presence and absence of palmitic acid.

[2] = pKa measurement by titration of hydrochloride salts with NaOH; format: physicochemical; details: 4:1 (v:v) CH3CN:H2O solution of the hydrochloride salt; in 4:1 CH3CN:H2O; read-out: pKa of the conjugate acid
Experimental: Solutions of the hydrochloride salts of diarylamines 1-7 (1 mM) were made up in 4:1 CH3CN:H2O (3.0 mL) and the pH was measured using an Accument Electrode microbe referenced to Ag/Ag^+ as a function of added volumes of NaOH (10 mM). […] The titration curves for the diarylamines are shown in FIGS. 6A and 6B (averages of triplicate experiments), and the pKas reported in the manuscript correspond to the pH when 0.5 molar equivalents of NaOH were added to the solution.

[3] = Diarylamine stability to oxygen at 160° C. in n-hexadecane; format: physicochemical
Experimental: n-Hexadecane (100 mL) was thoroughly degassed with argon and then heated to 160° C. while argon was continuously bubbled through the liquid. Once the temperature stabilized, 2.5 mmol of diarylamines 1-7 were added to the solution and the flow of argon was replaced with 02. Aliquots (100 μL) were removed every 10 minutes, and added to 900 μL of a 2.2 mM solution of benzyl alcohol (internal standard) in 2% isopropanol/hexanes (HPLC grade). Samples were analysed using a Waters 2695 Alliance HPLC at a flow rate of 2.1 mL min^−1 (8.0% PrOH/hexanes) on a Sunfire Silica column (5 μm, 4.6×250 mm) and determined by their UV absorbance.

[4] = Peroxyl radical clock kinetics; details: double reciprocal plot
Experimental: Peroxyl radical clocking experiments (to determine the inhibition rate constant kinh) for compound 5 were carried out according to our previously published reports (see Hanthorn, J., et al. J. Org. Chem. 2012, 77, 6895). Inhibition rate constants of the other compounds are as reported previously. A double reciprocal plot was used to obtain km=2.4×10^7 M^−1s^−1 for compound 5.

[5] = Cyclic voltammetry (standard potential); format: physicochemical; details: 1 mM in CH3CN containing 0.1 M Bu4NPF6
Experimental: A standard potential for diarylamine 5 was measured from its cyclic voltammagram obtained using a BASi potentiostat (available from BASi Analytical Instruments, West La Fayette, Ind., USA) with a glassy carbon working electrode, a platinum counter electrode and a Ag/AgNO3 reference electrode. The diarylamine was dissolved in degassed acetonitrile containing 0.1 M tetrabutylammonium hexafluorophosphate as supporting electrolyte and the current recorded in the range of 0-1 V at a scan rate of 200 mV/s. Standard potentials of the other compounds are reported in previous publications. A cyclic voltammogram of diarylamine 5 (1 mM in CH3CN containing 0.1 M Bu4NPF6) vs. Ag/Ag^+ gave E^0=0.84 V vs. NHE.

[6] = Tetralin autoxidation at 70° C. initiated by azobis(α-tetralin); details: hexanoic acid 50 μM, antioxidant 2 μM
Experimental: Fresh tetralin was prepared by passing it through a column of silica. Tetralin (1.0 mL) was added to a glass vial, followed by chlorobenzene (1.0 mL). A magnetic Teflon-coated stir bar was added, and the vial was capped with a rubber septum. The vial was then placed in a heating block at 70° C. for 5 minutes. Antioxidant (4, 7) (0.002 mmol) were added. For those experiment where acid was present, as noted in the figure captions, hexanoic acid (0.050 mmol) was also added at this point. Azobis(α-tetralin) (0.1 mmol) was added as the initiator. The solution was stirred for 30 s and the first sample was taken. 100 μL samples were taken at regular intervals and added to 900 μL of a solution containing 2.2 mM benzyl alcohol, 10 mM butylated-hydroxytoluene, and 10 mM triphenylphosphine in 2% isopropanol/hexanes (HPLC grade). Samples were analysed using a Waters 2695 Alliance HPLC (2.0% iPrOH/hexanes, 1.6 ml min^−1; 10 min; Sunfire Silica column (5 μm, 4.6×250 mm)) and analysed by UV absorbance.

[7] = TTBP 1 mM, 40 μM antioxidant, 160° C.

Compound	pKa [2]	inhibition of autoxidation in the presence of added base, compared with 7 [1, 7]	effect of added palmitic acid on inhibitory activity ([1]; 40 μM antioxidant, 160° C.)	effect of added base 2,4,6-tri-tert-butylpyridine on inhibition of autoxidation ([1]; 40 μM antioxidant, 160° C.)	also measured
CCCCCCN(CCCCCC)c1ccc(Nc2ccccc2)cn1 [Compound 3, N^2,N^2-Dihexyl-N^5-phenylpyridine-2,5-diamine]	8.4 ± 0.1	superior to 7	–	–	stability to O2 [3]: relatively unstable
CCCCCCN(CCCCCC)c1ncc(Nc2ccccc2)cn1 [Compound 4, N^2,N^2-Dihexyl-N^5-phenylpyrimidine-2,5-diamine]	8.2 ± 0.2	particularly good	disrupt the inhibitory activity	unprecedented inhibited period	difference in Δt2% (delay to reach [ROOH]=2%) relative to 7 ([1]; 40 μM antioxidant, TTBP 1 mM, 160° C.): 12.5 fold; effect of other bases on activity ([1]; cesium carbonate, potassium carbonate, or Primene 81-R (1 mM), 160° C.): rescued
c1ccc(Nc2ccccc2)cc1 [Compound 7, reference compound]	4.6 ± 0.3	–	unchanged	no effect	effect of added base 2,4,6-tri-tert-butylpyridine on inhibition of autoxidation ([1]; 40 μM antioxidant, 160° C., listed as diphenylamine): did not impact the reactivity; effect of added acid on antioxidant activity [6]: does not affect the activity
CCCCCCCCN(CCCCCCCC)c1ncc(Nc2ccc(C(C)(C)C)cc2)cn1 [Compound 20, N^5-(4-(tert-butyl)phenyl)-N^2,N^2-dioctylpyrimidine-2,5-diamine]	–	–	–	–	stability and reactivity compared with compound 4 ([1]; 40 μM, with and without TTBP 1 mM, 160° C. (FIG. 9)): slightly increased stability and reactivity

More lines, main results first:

pKa [2]	Compound	inhibition of autoxidation in the presence of added base, compared with 7 [1, 7]	effect of added palmitic acid on inhibitory activity ([1]; 40 μM antioxidant, 160° C.)	effect of added base 2,4,6-tri-tert-butylpyridine on inhibition of autoxidation ([1]; 40 μM antioxidant, 160° C.)	also measured
8.8 ± 0.1	CCCCN(CCCC)c1ncc(Nc2cnc(N(CCCC)CCCC)nc2)cn1 [Compound 2, N^2,N^2-Dibutyl-N^5-(2-(dibutylamino)pyrimidin-5-yl)pyrimidine-2,5-diamine]	particularly good	–	–	–
8.3 ± 0.1	CCCCCCc1ncc(Nc2cnc(N(CCCC)CCCC)nc2)cn1 [Compound 5, N^2,N^2-Dibutyl-N^5-(2-hexylpyrimidin-5-yl)pyrimidine-2,5-diamine]	particularly good	–	–	inhibition rate constant kinh (printed km) [4]: 2.4e+07 M⁻¹ s⁻¹; standard potential E^0 [5]: 0.84 V vs. NHE
